Data published in patent US20030113330A1, “Methods for treating pulmonary fibrosis” (priority 1999, published 2003).
“Also recorded” adds a separate entry of the source. Where a SMILES comes first, the peptide text is derived from it. The star is where a group is joined. Cbz = O=C(OCc1ccccc1)*; CH2F = FC*

Assays:
primary rat AEC = assay: Angiotensinogen-induced apoptosis in primary rat AEC; assay type: cell-based; settings: ANG 5.0 uM; saralasin 50 ug/ml, lisinopril 500 ng/ml
Experimental: Cell Culture. […] J. Physiol. Suppl. […] J. Physiol. […] J. Physiol. […] J. Physiol. Suppl.
Detection of Apoptosis. […] J. Physiol. […] Assay of Annexin V binding by flow cytometry was performed essentially as described for human lung fibroblasts in Uhal, et al., Am. J. Physiol. […] Assay of Caspase-3 activity was performed on viable suspension cultures as reported in Uhal, et al., Am. J. Physiol.
For microscopy, cells were cultured on glass cover slips, incubated with test reagents and fixed with 70% ethanol. The fixed cells were immunolabeled overnight at 4° C. with monoclonal antibodies to cytokeratins 7 and 19 (Chemicon International, Temecula, Calif.), and then for one hour at 37° C. with anti-mouse IgG-rhodamine and DNAse-free RNAse (Boehringer Mannheim, Indianapolis, Ind.) The cover slips were then rinsed in distilled water three times and mounted under Fluoromount Solution (Southern Biotechnology Associates, Birmingham, Ala.) containing 5 ug/ml propidium iodide. Photomicroscopy was performed as described in Uhal, et al., Am. J. Physiol.

[1] = test system: angiotensinogen (ANGEN) mRNA; assay: Quantitative RT-PCR of angiotensinogen mRNA in Fas-activated primary rat AEC; assay type: cell-based; settings: Fas ligand
Experimental: (§1) RT-PCR. Reverse transcriptase polymerase chain reaction (RT-PCR) assay of angiotensinogen gene products was performed as described in Wang et al., Am. J. Physiol. 276:L885-L889 (1999) in a total reaction volume of 30 μl. Total RNA was isolated by the RNeasy Mini protocol (Qiagen Co., Santa Clarita, Calif.). The reaction was performed for 1 hour at 45 C. followed by 20 cycles of PCR amplification. PCR amplification was performed with 10 ul aliquots of cDNA, equivalent to 1 ug of the starting RNA. The identity of expressed genes was determined by expected size of the PCR product in 1.6% agarose gels.
For RT-PCR of rat-specific gene products, the following primers were used: for angiotensinogen, coding=5′ […] 3′, and noncoding=5′ […] 3′, which yields a PCR product of 226 bp by single-step RT-PCR (Pierzchalski et al., Exp. Cell Res. 234:57-65 (1997)). For β-microglobulin, the primers used were: coding=5′ […] 3′, and noncoding=5′ […] 3′, which yields a product of 249 bp (Katwa et al., Cardiovasc. Res. 29:57-64 (1995)).
(§2) To confirm this, total RNA was isolated from human A549 cells or primary rat AEC that were unactivated (CTL) or activated with Fas-ligating CH-11 antibody or purified Fas ligand in the presence or absence of saralasin (SAR). Quantitative RT-PCR was performed with primers specific for human or rat angiotensinogen (ANGEN), β-actin or β-microglobulin (b-MG). […]

[2] = test system: angiotensinogen (ANGEN) mRNA; assay: Quantitative RT-PCR of angiotensinogen mRNA in Fas-activated A549 cells; assay type: cell-based, human; settings: A549, CH-11
Experimental: as §1
For RT-PCR from the human A549 cells, the following primers were used: for angiotensinogen, “outer” primer of a two-step nested assay, coding=5′ GCTTTC-[…] 3′ [SEQ. ID NO. ______], and noncoding=5′ […] 3′ [SEQ. ID. NO. ______]; for the “inner” primer of the nested assay, coding=5′ […] 3′ [SEQ. ID NO. ______], and noncoding=5′ […] 3′ [SEQ. ID NO. ______]. These primers yield a final PCR product of 447 bp (8). […]
as §2

[3] = test system: primary rat alveolar epithelial cells; assay: Apoptosis of rat AEC induced by human lung fibroblast-conditioned media; assay type: cell-based; settings: saralasin 50 ug/ml, DEVD-fmk 60 uM, anti-ANGII IgG 1 ug/ml
Text: Fibroblast Isolation, Culture and Preparation of Conditioned Media. Primary human lung fibroblasts were isolated at the National Institute of Respiratory Diseases, Mexico. […] Of these, “fibrotic” lung fibroblast strains (HIPF-X, where X=patient number) were derived from patients suffering from either of two different types of interstitial lung disease (ILD): Idiopathic Pulmonary Fibrosis (IPF) and Chronic Hypersensitivity Pneumonitis (CHP). In both diseases, patients had clinical, functional and radiologic features which fulfill the diagnostic criteria for an ILD. […] Briefly, all patients had progressive dyspnea, bilateral reticulonodular images on chest roentgenogram, restrictive lung functional impairment with decreased lung volumes and compliance, and hypoxemia at rest that worsened with exercise. […] Patients with IPF had neither antecedents of any occupational or environmental exposure nor other known cause of ILD. […] Biopsies lacked granulomas, vasculitis, microorganisms, and inorganic material by polarized light microscopy.
Control fibroblasts were obtained from individuals having undergone a lobectomy for removal of a primary lung tumor. […] Lung fibroblasts from normal or fibrotic tissue were isolated by trypsin dispersion, and fibroblast strains were established in Dulbecco's modified Eagle's medium (or in Ham's F-12 medium) supplemented with 10% fetal calf serum, 200 U/ml penicillin, and 200 mg/ml streptomycin. […]
Epithelial Cell Culture and Detection of Apoptosis. […] All epithelial cell preparations were greater than 90% pure as determined by acridine orange uptake into lamellar bodies. […] Epithelial cell apoptosis was detected by the assessment, under fluorescence microscopy, of chromatin condensation and nuclear fragmentation within cytokeratin-positive cells after ethanol fixation and staining with propidium iodide. […]
The percentage increase in rat AEC apoptosis was determined by propidium iodide assay of primary alveolar epithelial cells exposed to serum-free conditioned media, see Uhal et al., Am.

[4] = test system: primary alveolar epithelial cells (AEC); assay: Bleomycin-induced apoptosis of primary AEC in vitro
Experimental: Lung Cell Isolation and Detection of Apoptosis In Vitro. Primary alveolar epithelial cells (AEC) were isolated from adult male Wistar rats as described above. The primary cells were studied at day two of culture, a time at which they are type II cell-like by accepted morphologic and biochemical criteria, see Paine et al., Am. J. Physiol. […] All cells were seeded in 24-well or 6-well chambers, and all experiments were conducted at subconfluent densities of 80-90% in serum-free Ham's F12 medium. Test reagents were diluted with Ham's F12 medium and were applied for 20 hours at 37° C. in a 5% CO2 incubator.
Detection of apoptotic cells with propidium iodide (PI) was conducted as described above, following digestion of ethanol-fixed cells with DNAse-free RNAse in PBS containing 5 ug/ml PI.
Apoptosis was detected as described above.

## NCCCC[C@H](N[C@@H](CCc1ccccc1)C(=O)O)C(=O)N1CCC[C@H]1C(=O)O [lisinopril]
Primary rat AEC
  inhibition of angiotensinogen-induced apoptosis: blocked

## CNCC(=O)N[C@@H](CCCN=C(N)N)C(=O)N[C@H](C(=O)N[C@@H](Cc1ccc(O)cc1)C(=O)N[C@H](C(=O)N[C@@H](Cc1cnc[nH]1)C(=O)N1CCC[C@H]1C(=O)N[C@@H](C)C(=O)O)C(C)C)C(C)C [saralasin]
[1]
  effect on accumulation of ANGEN mRNA during Fas activation: had no effect
[2]
  effect on accumulation of ANGEN mRNA during Fas activation: had no effect
Primary rat AEC
  inhibition of angiotensinogen-induced apoptosis: completely inhibited
[3]
  inhibition of apoptosis induced by HIPF-conditioned media: completely abrogated; also recorded: eliminated

## COC(=O)C[C@H](NC(=O)[C@H](C)NC(=O)[C@@H](NC(=O)OCc1ccccc1)C(C)C)C(=O)CF [ZVAD-fmk, N-benzylcarboxy-Val-Ala-Asp-[O-Me]-CH2F] (Cbz-Val-Ala-Asp(OMe)-CH2F)
[4]; bleomycin 50 uM, captopril 500 ng/ml, ZVAD-fmk 60 uM, aurintricarboxylic acid 10 uM
  inhibition of bleomycin-induced apoptosis of AEC in vitro: 78%

## C[C@H](CS)C(=O)N1CCC[C@H]1C(=O)O [captopril]
[4]; Rattus norvegicus, Epithelial cell, read-out: inhibition of bleomycin-induced apoptosis of AEC in vitro
  inhibition at 0.5 µg/mL: 76%
